Measurements: patent US12460243B2, “Mass spectrometry determination of the sensitivity or resistance of bacteria to an antibiotic” (priority 2019, dated 2025)
Bridge positions count the residues as written; N and C are the ends. Square brackets hold non-standard residues; d marks the D form. Peptide text beside a SMILES is read from it. * marks the point of attachment. Heptanoyl(6-Me) = CC(C)CCCCC(=O)*; Dab = NCC[C@H](N)C(=O)O

Test system: Klebsiella pneumoniae
Assay: MALDI-TOF detection of released characteristic proteins, 10 min at 50° C., filtration (examples V, VI)
Type: cell-based
Details: for Aire sous la courbe des pics observés, 6290 / Aire sous la courbe des pics observés, 8308 / Aire sous la courbe des pics observés, CsbD domain-containing protein / Aire sous la courbe des pics observés, DNA binding protein H-NS / Aire sous la courbe des pics observés, Protéine ribosomique 50S L29 / Aire sous la courbe des pics observés, Protéine ribosomique 50S L31 / Aire sous la courbe des pics observés, Protéine ribosomique 50S L34 / Aire sous la courbe des pics observés, US9 / Ratio par protéine 6290/Colistine / Ratio par protéine 8308/Colistine / Ratio par protéine CsbD/Colistine / Ratio par protéine DNA BP H-NS/Colistine / Ratio par protéine L29/Colistine / Ratio par protéine L31/Colistine / Ratio par protéine L34/Colistine / Ratio par protéine US9/Colistine / Somme des ratios / sensitivity or resistance to colistin by MALDI-TOF: colistin 2.5 mg/ml, 10 min 50° C.; for classification by sum of the ratios against threshold: threshold 0.45
Description: The tests were carried out using the following steps: • preparing a suspension of microorganism at 2 McF in water (suspension medium, bioMérieux reference 70700), • preparing a solution of colistin sulfate (Sigma reference C4461) at a concentration of 2× in pure water (taking into account the colistin titer indicated by the manufacturer).
The proteins characteristic of the species Klebsiella pneumoniae are the DNA binding protein H-NS, the ribosomal proteins L29, L31, L34 and US9, the cold shock protein containing a CsbD domain (CsbD domain-containing protein), and the uncharacterized proteins with m/z 6290 and 8308. These proteins are characterized respectively by the peaks at 7705 (DNA binding protein H-NS), 7274 (L29), 7743 (L31), 5381 (L34), 7384 (US9), 8309 (CsbD), more or less 1000 parts per million (ppm). For their part, the hypothetical proteins are characterized by peaks at 6290 and […], more or less 1000 parts per million (ppm).
In the context of this example, the tests were carried out with the method of the present invention to determine the sensitivity or resistance of several bacteria of several strains such as in example V and comprising the following steps: • measuring the intensity of each peak observed, • finding a ratio between the sum of the intensities of the protein peaks of the microorganism and at least 1 peak of colistin. • determining the status, resistant or sensitive to colistin, as a function of the sum of the ratios obtained and of a threshold fixed for each species. • a resistant microorganism will have a low ratio and a sensitive microorganism will have a high ratio.
The K. pneumoniae strains KP S10-1, KP S10-2, KP S15-1, KP S15-2, KP R9-1, KP R9-2, KP R16-1 and KP R16-2 are also studied and the proteins characteristic of the species K. pneumoniae are analyzed. These characteristic proteins are the DNA binding protein H-NS, the ribosomal proteins L29, L31, L34 and US9, the cold shock protein containing a CsbD domain (CsbD domain-containing protein), and the uncharacterized proteins with m/z 6290 and 8308.

## CC(C)CCCCC(=O)N[C@@H](CCN)C(=O)N[C@H](C(=O)N[C@@H](CCN)C(=O)N[C@H]1CCNC(=O)[C@H]([C@@H](C)O)NC(=O)[C@H](CCN)NC(=O)[C@H](CCN)NC(=O)[C@H](CC(C)C)NC(=O)[C@@H](CC(C)C)NC(=O)[C@H](CCN)NC1=O)[C@@H](C)O [colistin] ({Heptanoyl(6-Me)}-[Dab]T[Dab][Dab][Dab][dL]L[Dab][Dab]T; lactam 4-C)
Strain KP R9-1
  Aire sous la courbe des pics observés, 6290: 0.00 unité arbitraire
  Aire sous la courbe des pics observés, 8308: 0 unité arbitraire
  Aire sous la courbe des pics observés, CsbD domain-containing protein: 0 unité arbitraire
  Aire sous la courbe des pics observés, DNA binding protein H-NS: 0.00 unité arbitraire
  Aire sous la courbe des pics observés, Protéine ribosomique 50S L29: 0 unité arbitraire
  Aire sous la courbe des pics observés, Protéine ribosomique 50S L31: 0 unité arbitraire
  Aire sous la courbe des pics observés, Protéine ribosomique 50S L34: 0 unité arbitraire
  Aire sous la courbe des pics observés, US9: 0 unité arbitraire
  Ratio par protéine 6290/Colistine: 0.00
  Ratio par protéine 8308/Colistine: 0.00
  Ratio par protéine CsbD/Colistine: 0.00
  Ratio par protéine DNA BP H-NS/Colistine: 0.00
  Ratio par protéine L29/Colistine: 0.00
  Ratio par protéine L31/Colistine: 0.00
  Ratio par protéine L34/Colistine: 0.00
  Ratio par protéine US9/Colistine: 0.00
  Somme des ratios: 0.00
Strain KP R9-2
  Aire sous la courbe des pics observés, 6290: 0.00 unité arbitraire
  Aire sous la courbe des pics observés, 8308: 0 unité arbitraire
  Aire sous la courbe des pics observés, CsbD domain-containing protein: 0 unité arbitraire
  Aire sous la courbe des pics observés, DNA binding protein H-NS: 89 unité arbitraire
  Aire sous la courbe des pics observés, Protéine ribosomique 50S L29: 0 unité arbitraire
  Aire sous la courbe des pics observés, Protéine ribosomique 50S L31: 0 unité arbitraire
  Aire sous la courbe des pics observés, Protéine ribosomique 50S L34: 0 unité arbitraire
  Aire sous la courbe des pics observés, US9: 0 unité arbitraire
  Ratio par protéine 6290/Colistine: 0.00
  Ratio par protéine 8308/Colistine: 0.00
  Ratio par protéine CsbD/Colistine: 0.00
  Ratio par protéine DNA BP H-NS/Colistine: 0.11
  Ratio par protéine L29/Colistine: 0.00
  Ratio par protéine L31/Colistine: 0.00
  Ratio par protéine L34/Colistine: 0.00
  Ratio par protéine US9/Colistine: 0.00
  Somme des ratios: 0.11
Strain KP R16-1
  Aire sous la courbe des pics observés, 6290: 0.00 unité arbitraire
  Aire sous la courbe des pics observés, 8308: 0 unité arbitraire
  Aire sous la courbe des pics observés, CsbD domain-containing protein: 0 unité arbitraire
  Aire sous la courbe des pics observés, DNA binding protein H-NS: 0.00 unité arbitraire
  Aire sous la courbe des pics observés, Protéine ribosomique 50S L29: 0 unité arbitraire
  Aire sous la courbe des pics observés, Protéine ribosomique 50S L31: 0 unité arbitraire
  Aire sous la courbe des pics observés, Protéine ribosomique 50S L34: 0 unité arbitraire
  Aire sous la courbe des pics observés, US9: 0 unité arbitraire
  Ratio par protéine 6290/Colistine: 0.00
  Ratio par protéine 8308/Colistine: 0.00
  Ratio par protéine CsbD/Colistine: 0.00
  Ratio par protéine DNA BP H-NS/Colistine: 0.00
  Ratio par protéine L29/Colistine: 0.00
  Ratio par protéine L31/Colistine: 0.00
  Ratio par protéine L34/Colistine: 0.00
  Ratio par protéine US9/Colistine: 0.00
  Somme des ratios: 0.00
Strain KP R16-2
  Aire sous la courbe des pics observés, 6290: 0.00 unité arbitraire
  Aire sous la courbe des pics observés, 8308: 0 unité arbitraire
  Aire sous la courbe des pics observés, CsbD domain-containing protein: 0 unité arbitraire
  Aire sous la courbe des pics observés, DNA binding protein H-NS: 0.00 unité arbitraire
  Aire sous la courbe des pics observés, Protéine ribosomique 50S L29: 0 unité arbitraire
  Aire sous la courbe des pics observés, Protéine ribosomique 50S L31: 0 unité arbitraire
  Aire sous la courbe des pics observés, Protéine ribosomique 50S L34: 0 unité arbitraire
  Aire sous la courbe des pics observés, US9: 0 unité arbitraire
  Ratio par protéine 6290/Colistine: 0.00
  Ratio par protéine 8308/Colistine: 0.00
  Ratio par protéine CsbD/Colistine: 0.00
  Ratio par protéine DNA BP H-NS/Colistine: 0.00
  Ratio par protéine L29/Colistine: 0.00
  Ratio par protéine L31/Colistine: 0.00
  Ratio par protéine L34/Colistine: 0.00
  Ratio par protéine US9/Colistine: 0.00
  Somme des ratios: 0.00
Strain KP S10-1
  Aire sous la courbe des pics observés, 6290: 837 unité arbitraire
  Aire sous la courbe des pics observés, 8308: 209 unité arbitraire
  Aire sous la courbe des pics observés, CsbD domain-containing protein: 0 unité arbitraire
  Aire sous la courbe des pics observés, DNA binding protein H-NS: 374 unité arbitraire
  Aire sous la courbe des pics observés, Protéine ribosomique 50S L29: 474 unité arbitraire
  Aire sous la courbe des pics observés, Protéine ribosomique 50S L31: 321 unité arbitraire
  Aire sous la courbe des pics observés, Protéine ribosomique 50S L34: 0 unité arbitraire
  Aire sous la courbe des pics observés, US9: 297 unité arbitraire
  Ratio par protéine 6290/Colistine: 0.55
  Ratio par protéine 8308/Colistine: 0.14
  Ratio par protéine CsbD/Colistine: 0.00
  Ratio par protéine DNA BP H-NS/Colistine: 0.25
  Ratio par protéine L29/Colistine: 0.31
  Ratio par protéine L31/Colistine: 0.21
  Ratio par protéine L34/Colistine: 0.00
  Ratio par protéine US9/Colistine: 0.20
  Somme des ratios: 1.66
Strain KP S10-2
  Aire sous la courbe des pics observés, 6290: 146 unité arbitraire
  Aire sous la courbe des pics observés, 8308: 54 unité arbitraire
  Aire sous la courbe des pics observés, CsbD domain-containing protein: 0 unité arbitraire
  Aire sous la courbe des pics observés, DNA binding protein H-NS: 119 unité arbitraire
  Aire sous la courbe des pics observés, Protéine ribosomique 50S L29: 124 unité arbitraire
  Aire sous la courbe des pics observés, Protéine ribosomique 50S L31: 76 unité arbitraire
  Aire sous la courbe des pics observés, Protéine ribosomique 50S L34: 134 unité arbitraire
  Aire sous la courbe des pics observés, US9: 77 unité arbitraire
  Ratio par protéine 6290/Colistine: 0.17
  Ratio par protéine 8308/Colistine: 0.06
  Ratio par protéine CsbD/Colistine: 0.00
  Ratio par protéine DNA BP H-NS/Colistine: 0.14
  Ratio par protéine L29/Colistine: 0.15
  Ratio par protéine L31/Colistine: 0.09
  Ratio par protéine L34/Colistine: 0.16
  Ratio par protéine US9/Colistine: 0.09
  Somme des ratios: 0.86
Strain KP S15-1
  Aire sous la courbe des pics observés, 6290: 215 unité arbitraire
  Aire sous la courbe des pics observés, 8308: 0 unité arbitraire
  Aire sous la courbe des pics observés, CsbD domain-containing protein: 248 unité arbitraire
  Aire sous la courbe des pics observés, DNA binding protein H-NS: 0 unité arbitraire
  Aire sous la courbe des pics observés, Protéine ribosomique 50S L29: 0 unité arbitraire
  Aire sous la courbe des pics observés, Protéine ribosomique 50S L31: 0 unité arbitraire
  Aire sous la courbe des pics observés, Protéine ribosomique 50S L34: 0 unité arbitraire
  Aire sous la courbe des pics observés, US9: 150 unité arbitraire
  Ratio par protéine 6290/Colistine: 0.24
  Ratio par protéine 8308/Colistine: 0.00
  Ratio par protéine CsbD/Colistine: 0.28
  Ratio par protéine DNA BP H-NS/Colistine: 0.00
  Ratio par protéine L29/Colistine: 0.00
  Ratio par protéine L31/Colistine: 0.00
  Ratio par protéine L34/Colistine: 0.00
  Ratio par protéine US9/Colistine: 0.17
  Somme des ratios: 0.68
Strain KP S15-2
  Aire sous la courbe des pics observés, 6290: 141 unité arbitraire
  Aire sous la courbe des pics observés, 8308: 0 unité arbitraire
  Aire sous la courbe des pics observés, CsbD domain-containing protein: 237 unité arbitraire
  Aire sous la courbe des pics observés, DNA binding protein H-NS: 0 unité arbitraire
  Aire sous la courbe des pics observés, Protéine ribosomique 50S L29: 0 unité arbitraire
  Aire sous la courbe des pics observés, Protéine ribosomique 50S L31: 0 unité arbitraire
  Aire sous la courbe des pics observés, Protéine ribosomique 50S L34: 0 unité arbitraire
  Aire sous la courbe des pics observés, US9: 92 unité arbitraire
  Ratio par protéine 6290/Colistine: 0.14
  Ratio par protéine 8308/Colistine: 0.00
  Ratio par protéine CsbD/Colistine: 0.23
  Ratio par protéine DNA BP H-NS/Colistine: 0.00
  Ratio par protéine L29/Colistine: 0.00
  Ratio par protéine L31/Colistine: 0.00
  Ratio par protéine L34/Colistine: 0.00
  Ratio par protéine US9/Colistine: 0.088
  Somme des ratios: 0.45
Strain KP-R9
  classification by sum of the ratios against threshold: resistant (the strains whose sum of the ratios is strictly below 0.45 will be considered as resistant)
Strain KP-R16
  classification by sum of the ratios against threshold: resistant (the strains whose sum of the ratios is strictly below 0.45 will be considered as resistant)
Strain KP-S10
  classification by sum of the ratios against threshold: sensitive (the strains whose sum of the ratios is greater than or equal to 0.45 will be considered as sensitive)
Strain KP-S15
  classification by sum of the ratios against threshold: sensitive (the strains whose sum of the ratios is greater than or equal to 0.45 will be considered as sensitive)
Strain KP_R9
  sensitivity or resistance to colistin by MALDI-TOF: resistant
Strain KP_R16
  sensitivity or resistance to colistin by MALDI-TOF: resistant
Strain KP_S10
  sensitivity or resistance to colistin by MALDI-TOF: sensitive
Strain KP_S15
  sensitivity or resistance to colistin by MALDI-TOF: sensitive
